In paper PMC2978705, “Thermodynamic Additivity of Sequence Variations: An Algorithm for Creating High Affinity Peptides Without Large Libraries or Structural Information” (PLoS ONE, 2010):
Blank lines part the entries; values can stand above or below the sequence they belong to. Where no end group is shown, it is not given here.

Tests used:
Type in all cases: binding
transferrin = transferrin (Homo sapiens, UniProt P02787); assay: Equilibrium SPR affinity of TRF26 peptides for immobilized transferrin; conditions: peptide concentration series
Chain of transferrin (P02787 20-698, species assumed): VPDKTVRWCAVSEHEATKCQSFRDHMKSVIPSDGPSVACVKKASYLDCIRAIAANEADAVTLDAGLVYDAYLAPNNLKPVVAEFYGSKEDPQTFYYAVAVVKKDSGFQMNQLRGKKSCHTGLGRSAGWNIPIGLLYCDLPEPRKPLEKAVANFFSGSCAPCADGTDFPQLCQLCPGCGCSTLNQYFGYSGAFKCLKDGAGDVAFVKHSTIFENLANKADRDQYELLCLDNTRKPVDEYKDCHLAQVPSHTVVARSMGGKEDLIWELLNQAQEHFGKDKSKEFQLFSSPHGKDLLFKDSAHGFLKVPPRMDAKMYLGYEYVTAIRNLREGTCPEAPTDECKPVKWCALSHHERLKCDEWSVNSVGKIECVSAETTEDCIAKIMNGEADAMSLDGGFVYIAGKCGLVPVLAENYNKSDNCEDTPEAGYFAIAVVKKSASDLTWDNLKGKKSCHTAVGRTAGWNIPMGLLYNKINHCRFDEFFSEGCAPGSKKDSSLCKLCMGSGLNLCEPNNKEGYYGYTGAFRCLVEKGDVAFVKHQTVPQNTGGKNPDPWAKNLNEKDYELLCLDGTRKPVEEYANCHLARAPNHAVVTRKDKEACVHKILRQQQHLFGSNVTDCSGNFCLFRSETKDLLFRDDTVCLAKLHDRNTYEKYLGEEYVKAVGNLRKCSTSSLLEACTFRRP

TNF-α [1] = biological target: T1, TNF-α (Homo sapiens, UniProt P01375); assay: Equilibrium SPR affinity of peptides for captured TNF-α
T1 sequence (P01375 77-233 limits assumed): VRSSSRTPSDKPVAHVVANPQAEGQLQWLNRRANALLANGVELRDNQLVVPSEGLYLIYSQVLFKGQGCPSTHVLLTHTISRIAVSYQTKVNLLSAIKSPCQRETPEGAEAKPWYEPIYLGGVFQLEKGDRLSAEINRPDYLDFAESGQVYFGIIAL
Description: Point-variant libraries were prepared in 96-well stock plates as described in the supporting information. From the stock plate, peptides were diluted to 50 µM or 10 µM in Biacore HBS-EP buffer (GE Healthcare, Piscataway, NJ) containing 1 mg/ml carboxymethyl-dextran (Sigma-Aldrich, St. Louis, MO) to reduce non-specific binding to the CM-5 SPR chip surface. Biotinylated TNF-α was captured on a neutravidin coated Biacore CM-5 chip (GE Healthcare, Piscataway, NJ) at different levels on spots 1, 2, 4, and 5 across all four flow cells corresponding to a low to moderate Rmax range of 40-200 RU. Spot 3 on all flow cells contained only immobilized neutravidin and served as a reference spot.
Responses were normalized to the predicted Rmax so that results from different TNF-α capture levels could be directly compared.
Sequences containing multiple enhancing point variations were synthesized using standard solid-phase synthesis and purified. Multiple variant affinities were determined with the same protocol used for point-variant affinities.
Peptide binding energies and dissociation constants (Kd) were calculated separately as a mean and standard error of all replicate measurements.
Text S1: Experimental Details […]
Point-Variant Libraries. Point-variant libraries were ordered in PEPScreen® 96 -vial format from Sigma-Genosys (St. Louis, MO). The purity of each peptide in the library was […]
was dissolved in HBS-N buffer to an approximate 2 mg/ml concentration, each vial was centrifuged to spin insoluble peptide to the bottom of the vial. Supernatant was collected from each vial and transferred to a 96-well plate, peptide supernatant concentrations in each well was measured using A280 absorbance and a predicted molar extinction coefficient (ε280) based on the specific peptide sequence. Based on the supernatant concentrations, all the […]
plate(s). All SPR screens of the point-variants were done using dilutions from this stock […]
SPR Assays. SPR Chip Preparation. Unless otherwise noted, SPR immobilization was done on a Biacore A100 SPR system (GE Healthcare, Piscataway, NJ). A standard coupling protocol was employed to immobilize a neutravidin capture surface via exposed primary amines. The immobilization was performed at 25 °C using Sodium Acetate (10 mM in 150 mM Sodium Chloride, pH 4.5) as the running buffer. Addressable spots 1, 2, 3 on each of the four flow cells of the CM-5 dextran SPR chip (GE Healthcare, Piscataway, NJ) were activated by a 10 minute injection of a freshly prepared 1:1 solution of 400 mM 1-ethyl-3-(3-dimethylaminopropyl)-carbodimide (EDC): 100 mM N-hydroxysuccimide (NHS) in […]

TNF-α [2] = biological target: T1, TNF-α; assay: Solution-phase fluorescence anisotropy of labeled TNF1-opt with TNF-α; conditions: peptide labeled at C-terminal cysteine fixed at 100 nM, TNF-α varied 80 nM to 10 µM, triplicate
Description: Figure 4 Equilibrium binding isotherms for TNF1-opt. Outer plot: SPR normalized replicate responses performed with TNF-α captured on the SPR chip surface and variable TNF-opt concentrations flowed over the surface. Inset plot: Solution-phase fluorescence anisotropy measurements performed in triplicate with TNF1-opt labeled at the C-terminal cysteine, TNF-opt concentration was fixed at 100 nM while TNF-α concentration was varied. TNF1-opt sensorgrams are available in Figure S5 in File S1, SPR binding isotherms for all enhanced variants tested are available in Figure S6 in File S1.
TNF1 and TNF4 Lead Generation from a […] Random Peptide Screen. Peptide Library and SPR Chip Preparation. Random 20-mer peptides were prepared in 384-well plates and diluted with Biacore HBS-EP buffer (GE Healthcare, Piscataway, NJ) containing 1 mg/ml carboxymethyl-dextran (Sigma-Aldrich, St. Louis, MO) to reduce non-specific binding to the CM-5 SPR chip surface. […]
TNF1-opt Fluorescence Polarization Affinity Characterization. Fluorescence anisotropy measurements were performed on a custom fluorimeter with an orthogonal optical configuration. […]
200 nM TNF-α and 200 nM E.coli lysate (calculated as a total protein concentration in the lysate) labeled with Alexa-555 and Alexa-647 (Invitrogen, Carlsbad, CA) respectively in PBST buffer containing 1% BSA was incubated with the microarray for 1 hour in a humidity chamber. […]

TNF-α [3] = biological target: T1, TNF-α; assay: Kinetic fits of SPR sensorgrams; conditions: for Kd: from koff and kon of SPR kinetic fits; for koff / kon: kinetic fits of SPR sensorgrams across a concentration series
Description: Kinetic fits of the TNF1 and TNF1-opt SPR sensorgrams (Figure S7 in File S1) indicate that TNF1-opt has approximately an order of magnitude or more improvement in both on-rate (kon), and off-rate (koff), when compared to TNF1 (TNF1: koff = 1.6±0.5 s^−1, kon = 5.0±1.7×10^3 M^−1s^−1, TNF1-opt: koff = 0.2±0.02 s^−1 kon = 2.6±0.2×10^5 M^−1s^−1).
Figure S7. SPR sensorgram kinetic fits for TNF1 and TNF1-opt. On-rates (kon), off-rates (koff) and dissociation constants (Kd) shown were determined from kinetic fits of several sensorgrams across the same concentration series used in equilibrium binding response analysis.
(1 picture or pasted object on this page, not shown here)

[4] = equilibrium SPR binding responses, TNF-α
[5] = equilibrium SPR, TNF-α captured on chip, peptide concentration series, mean ± standard error of several replicates, SEM

Sequence: FERDYLMMPWKFLQSRQGSC [P5Y+S11K]
Kd (TNF-α [1]; [5]): 24 ± 1.4 µM

Sequence: FERDYLKMPWSFLQSRQGSC [P5Y+M7K]
Kd (TNF-α [1]; [5]): 27 ± 1.8 µM

Sequence: AHKVVPQRQIRFAYNRYGSC [Peptide H12F]
Kd (transferrin): 9.7 ± 1.6 µM

Sequence: FERDPLKMPWSFLQSRQGSC [Peptide M7K]
Kd (TNF-α [1]; [5]): 57 ± 20 µM

Sequence: AHKVVYQRQIRFAYNRYGSC [P6Y+H12F]
Kd (transferrin): 0.5 ± 0.1 µM

Sequence: FERDPLMMPWKFLQSRQGSC [Peptide S11K]
Kd (TNF-α [1]; [5]): 40 ± 7.2 µM

Sequence: YGPSYAFKITRFHQQSSGSC [Peptide D5Y]
Kd (TNF-α [1]; [4]): 0.28 ± 0.04 µM

Sequence: AHKVVYQRQIRHAYNRYGSC [Peptide P6Y]
Kd (transferrin): 8.6 ± 1.6 µM

Sequence: FERYPLKMPWSFLQSRQGSC [D4Y+M7K]
Kd (TNF-α [1]; [5]): 17 ± 1.9 µM

Sequence: FERYPLMMPWSFLQSRQGSC [Peptide D4Y]
Kd (TNF-α [1]; [5]): 44 ± 4.8 µM

Sequence: FERSYLKMPWSFLQSRQGSC [D4S+P5Y+M7K]
Kd (TNF-α [1]; [5]): 14 ± 1 µM

Sequence: FERDYLMMPWSFLQSRQGSC [Peptide P5Y]
Kd (TNF-α [1]; [5]): 58 ± 3.4 µM

Sequence: FERSYLMMPWKFLQSRQGSC [D4S+P5Y+S11K]
Kd (TNF-α [1]; [5]): 7 ± 0.5 µM

Sequence: FERYPLMMPWKFLQSRQGSC [D4Y+S11K]
Kd (TNF-α [1]; [5]): 9.3 ± 0.7 µM

Sequence: YGPSDAFKIYRFHQQSSGSC [Peptide T10Y]
Kd (TNF-α [1]; [4]): 0.31 ± 0.01 µM

Other lines, results leading:

Kd (transferrin): 85 ± 14 µM
Sequence: AHKVVPQRQIRHAYNRYGSC [TRF26]

Kd (TNF-α [1]; [4]): 0.38 ± 0.08 µM
Sequence: WGPSDAFKITRFHQQSSGSC [Peptide Y1W]

Kd (TNF-α [1]; [5]): 1.6 ± 0.3 µM
Kd (TNF-α [2]): 1.1 ± 0.2 µM
Kd (TNF-α [3]; read-out: Kd calculated from rate constants): 0.7 ± 0.02 µM
koff (TNF-α [3]): 0.2 ± 0.02 s⁻¹
kon (TNF-α [3]): 260000 ± 2e+09 M⁻¹ s⁻¹
Sequence: FERSYLKMPWKFLQSRQGSC [TNF1-opt]

Kd (TNF-α [1]; [5]): 23 ± 3.5 µM
Sequence: YGPSDAFKITRFHQQSSGSC [TNF4]

Kd (TNF-α [1]; [5]): 160 ± 19 µM
koff (TNF-α [3]): 1.6 ± 0.5 s⁻¹
kon (TNF-α [3]): 5000 ± 1.7e+06 M⁻¹ s⁻¹
Sequence: FERDPLMMPWSFLQSRQGSC [TNF1]

Kd (TNF-α [1]; [4]): 0.09 ± 0.02 µM
Kd (TNF-α [3]; read-out: Kd resulting from rate constants): 0.13 ± 0.03 µM
koff (TNF-α [3]): 0.0075 ± 8e-07 s⁻¹
kon (TNF-α [3]): 58000 ± 1.2e+08 M⁻¹ s⁻¹
Sequence: WGPSYAFKIYRFHQQSSGSC [TNF4-opt]

Kd (TNF-α [1]; [4]): 0.2 ± 0.03 µM
Sequence: WGPSYAFKITRFHQQSSGSC [Y1W+D5Y]
